Common to all, as to test: MIC by agar-dilution, Diagnostic Sensitivity Test
Assay type in all cases: cell-based
Conditions in all cases: inoculum 10^4 CFU/spot

In one assay the test system is E. coli TEM. From the text: (§1) The following results were obtained for representative compounds on a standard in vitro test system using Diagnostic Sensitivity Test. The antibacterial activity is described in terms of the minimum inhibitory concentration (MIC) determined by the agar-dilution technique with an inoculum size of 10^4 CFU/spot.
A further assay relates to Enterobacter cloacae 029.
From the text: as §1

The test system of a further assay is Enterobacter cloacae 108.
From the text: as §1

The test system of another assay is S. aureus 147N.
From the text: as §1

≈ marks a conversion by molar mass, not a printed value. Like-named read-outs stand apart in the source and are kept apart here.

Take `C[C@@H](O)[C@H]1C(=O)N2C(C(=O)O)=C(S[C@@H]3CN[C@H](C(=O)Nc4cc(O)cc(C(=O)O)c4)C3)[C@H](C)[C@H]12` [Example 1, (1R,5S,6S,8R,2′S,4′S)-2-(2-(3-Carboxy-5-hydroxyphenylcarbamoyl)-pyrrolidin-4-yl-thio)-6-(1-hydroxyethyl)-1-methylcarbapenem-3-carboxylic acid]: the MIC with E. coli TEM was found to be 0.03 µg/mL (≈ 0.061 µM); with Enterobacter cloacae 029, 0.06 µg/mL (≈ 0.122 µM); against Enterobacter cloacae 108 it was 1.00 µg/mL (≈ 2.03 µM); in the assay on S. aureus 147N it was 0.25 µg/mL (≈ 0.509 µM).
In the same order, the values of `CC(O)C1C(=O)N2C(C(=O)O)=C(SC3CNC(C(=O)Nc4ccc(Cl)c(C(=O)O)c4)C3)C(C)[C@H]12` (stereo partly drawn) [Example 2, (1R,5S,6S,8R,2′S,4′S)-2-(2-(3-Carboxy-4-chlorophenylcarbamoyl)-pyrrolidin-4-ylthio)-6-(1-hydroxyethyl)-1-methylcarbapenem-3-carboxylic acid] are 0.02 µg/mL (≈ 0.0392 µM), 0.03 µg/mL (≈ 0.0588 µM), 1.00 µg/mL (≈ 1.96 µM) and 0.50 µg/mL (≈ 0.98 µM).
With `CC(O)C1C(=O)N2C(C(=O)O)=C(SC3CNC(C(=O)Nc4cccc(C(=O)O)c4)C3)C(C)[C@H]12` (stereo partly drawn) [Example 4, (1R,5S,6S,8R,2′S,4′S)-2-(2-(3-Carboxyphenylcarbamoyl)pyrrolidin-4-ylthio) -6-(1-hydroxyethyl)-1-methylcarbapenem-3-carboxylic acid], the MIC in the assay on E. coli TEM was found to be 0.02 µg/mL (≈ 0.0421 µM); in the assay on Enterobacter cloacae 029, 0.03 µg/mL (≈ 0.0631 µM); with Enterobacter cloacae 108 it was 0.50 µg/mL (≈ 1.05 µM); with S. aureus 147N it was 0.25 µg/mL (≈ 0.526 µM).
Regarding `C[C@@H](O)[C@H]1C(=O)N2C(C(=O)O)=C(S[C@@H]3CN[C@H](C(=O)Nc4ccc(O)c(C(=O)O)c4)C3)[C@H](C)[C@H]12` [Example 10, (1R,5S,6S,8R,2′S,4′S)-2-(2-(3-Carboxy-4-hydroxyphenylcarbamoyl)pyrrolidin-4-ylthio)-6-(1-hydroxyethyl)-1-methylcarbapenem-3-carboxylic acid], the MIC came to 0.01 µg/mL (≈ 0.0203 µM) in the assay on E. coli TEM, 0.01 µg/mL (≈ 0.0203 µM) against Enterobacter cloacae 029, 0.25 µg/mL (≈ 0.509 µM) in the assay on Enterobacter cloacae 108 and 0.13 µg/mL (≈ 0.264 µM) with S. aureus 147N.
For the compound `CO/N=C(\C(=O)N[C@@H]1C(=O)N2C(C(=O)O)=C(CSc3nc(=O)c(=O)[nH]n3C)CS[C@H]12)c1csc(N)n1` [ceftriaxone, reference compound], the MIC is 0.03 µg/mL (≈ 0.0541 µM) with E. coli TEM (Escherichia coli, read-out: MIC); 0.06 µg/mL (≈ 0.108 µM) in the assay with Enterobacter cloacae 029 (read-out: MIC); 32 µg/mL (≈ 57.7 µM) in the assay with Enterobacter cloacae 108 (read-out: MIC); 2 µg/mL (≈ 3.61 µM) in the assay with S. aureus 147N (Staphylococcus aureus, read-out: MIC).

(Values after patent US7342005B2, “Antibiotic compounds” (AstraZeneca UK Limited, priority 1992, dated 2008).)
